Drawing on ChEMBL document CHEMBL5344445, “Profiling the Linear Peptides of Venom from the Brazilian Scorpion Tityus serrulatus: Structural and Functional Characterization” (J Nat Prod, 2024), this text covers Activity and hemolysis for one substance.

The nature of data set [1]: Induction of edema formation in Swiss mouse at 2 ug, I.PL measured after 180 mins relative to control. Type of data set: toxicity. The conditions noted are these: in vivo, other, 3 h, dose 2 µg.
Another data set relates to Staphylococcus aureus. As to the kind of experiment: Antibacterial activity against Staphylococcus aureus. Format: functional, organism-based.
Data set [2] is described as follows: Induction of Wistar rat mast cell degranulation assessed as beta-D-glusosaminidase release at 5 to 500 uM incubated for 15 mins relative to control. Format: toxicity, cell-based. Particulars: 0.25 h, dose 5-500 µM.
Data set [3] in a line: Induction of nociception in Swiss mouse at 2 ug, I.PL incubated for 180 mins by von frey test relative to control. Format: toxicity. The conditions noted are these: in vivo, other, 3 h, dose 2 µg.
A short description of data set [4]: Induction of nociception in Swiss mouse at 2 ug, I.PL incubated for 60 mins by von frey test relative to control. The conditions noted are these: in vivo, other, 1 h, dose 2 µg. Format: toxicity.
The nature of data set [5]: Induction of Wistar rat mast cell lysis assessed as LDH release at 5 to 500 uM incubated for 5 mins in presence of NADH relative to control. The conditions noted are these: dose 5-500 µM. Format: toxicity, cell-based.
Data set [6] can be described thus: Effect on rearing activity in Swiss mouse assessed as increase in frequency at 2 ug, I.PL incubated for 3 to 15 mins by open field test relative to control. Format: toxicity. The conditions noted are these: in vivo, other, time 3-15 min, dose 2 µg.
The next data set deals with Escherichia coli. Kind of data set: Antibacterial activity against Escherichia coli. Type of data set: functional, organism-based.
The nature of data set [7]: Hemolytic activity in Wistar rat RBC at 5 to 500 uM incubated for 120 mins. Type of data set: toxicity, cell-based, Erythrocyte. The conditions noted are these: Wistar, red blood cells (erythrocytes), dose 5-500 µM, read-out: Activity.
In another data set the test system is Klebsiella aerogenes. As to the kind of experiment: Antibacterial activity against Enterobacter aerogenes. Format: functional, organism-based.
The nature of data set [8]: Induction of edema formation in Swiss mouse at 2 ug, I.PL measured after 60 mins relative to control. Format: toxicity. Particulars: in vivo, other, 1 h, dose 2 µg.
A short description of data set [9]: Effect on locomotory activity in Swiss mouse assessed as decrease in frequency at 2 ug, I.PL incubated for 3 to 15 mins by open field test relative to control. Format: toxicity. The conditions noted are these: in vivo, other, time 3-15 min, dose 2 µg.
Data set [10] in a line: Induction of nociception in Swiss mouse at 2 ug, I.PL incubated for 300 mins by von frey test relative to control. Format: toxicity. Particulars: in vivo, other, 5 h, dose 2 µg.
Data set [11] in a line: Induction of edema formation in Swiss mouse at 2 ug, I.PL measured after 300 mins relative to control. Particulars: in vivo, other, 5 h, dose 2 µg. Format: toxicity.
The subject of another data set is Streptococcus pneumoniae. Kind of data set: Antibacterial activity against Streptococcus pneumoniae. Format: functional, organism-based.

The source made the active and inactive calls. No cut-off for these calls is given here. Where only a bound is given, the exact number is not on record here.

For the substance H-IPEDIIKK-OH, the Activity result is listed as “Non-Toxic” in data set [1]; “<= 40%” in data set [2]; “Non-Toxic” in data set [3]; “Non-Toxic” in data set [4]; “<= 40%” in data set [5]; “Non-Toxic” in [6]. Also, the Activity result in [8], in [9], in [10] and in [11] was “Non-Toxic” each time. In addition, the outcome in the data set with Staphylococcus aureus, with Escherichia coli, in the data set on Klebsiella aerogenes and in the data set on Streptococcus pneumoniae was inactive. In addition, the hemolysis at 2 h, up to 500 µM in data set [7] was at most 40%.
